Test results from ChEMBL document CHEMBL3400053, “trans-3,4-Disubstituted pyrrolidines as inhibitors of the human aspartyl protease renin. Part II: prime site exploration using an oxygen linker” (Bioorg Med Chem Lett, 2015).

Experiments:
Renin [1] = target: T1, Renin (Homo sapiens, UniProt P00797); test: Inhibition of human recombinant renin by TR-FRET assay
T1 sequence (P00797 whole entry): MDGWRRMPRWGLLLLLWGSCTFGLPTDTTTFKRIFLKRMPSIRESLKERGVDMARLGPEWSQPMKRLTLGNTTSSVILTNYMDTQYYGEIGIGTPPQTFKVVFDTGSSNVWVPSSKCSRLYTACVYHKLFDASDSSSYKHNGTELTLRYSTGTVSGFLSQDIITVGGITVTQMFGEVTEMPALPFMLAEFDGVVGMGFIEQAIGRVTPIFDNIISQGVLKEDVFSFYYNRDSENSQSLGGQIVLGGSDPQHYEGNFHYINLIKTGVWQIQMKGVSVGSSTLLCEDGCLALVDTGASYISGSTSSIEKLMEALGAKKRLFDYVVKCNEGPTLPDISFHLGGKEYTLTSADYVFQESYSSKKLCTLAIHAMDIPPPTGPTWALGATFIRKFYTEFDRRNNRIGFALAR

Cytochrome P450 3A4 = Cytochrome P450 3A4 (Homo sapiens, UniProt P08684); test: Inhibition of CYP3A4 (unknown origin) using 7-benzyl-4-trifluoromethylcoumarin as fluorometric substrate; type: ADME
Renin [2] = target: T1, Renin; test: Inhibition of human recombinant renin in presence of plasma by TR-FRET assay
[3] = target: T2, Alpha-2B adrenergic receptor (Homo sapiens, UniProt P18089); test: Inhibition of alpha-adrenoceptor 2B (unknown origin)
T2 sequence (P18089 whole entry): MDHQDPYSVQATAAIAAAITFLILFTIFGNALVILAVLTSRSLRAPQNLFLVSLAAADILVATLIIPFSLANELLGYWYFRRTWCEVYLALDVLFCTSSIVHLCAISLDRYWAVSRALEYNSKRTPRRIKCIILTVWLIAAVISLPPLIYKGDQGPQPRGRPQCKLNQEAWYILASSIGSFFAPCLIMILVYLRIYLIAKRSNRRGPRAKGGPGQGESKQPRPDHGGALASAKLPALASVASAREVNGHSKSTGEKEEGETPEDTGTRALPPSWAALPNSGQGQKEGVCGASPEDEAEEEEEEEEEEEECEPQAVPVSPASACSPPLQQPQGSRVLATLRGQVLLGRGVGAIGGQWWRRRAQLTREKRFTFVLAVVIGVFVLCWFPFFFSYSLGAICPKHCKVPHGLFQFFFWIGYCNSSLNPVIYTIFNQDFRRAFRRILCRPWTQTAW

Mu-type opioid receptor = Mu-type opioid receptor (Homo sapiens, UniProt P35372); test: Inhibition of mu opioid receptor (unknown origin)
Phosphodiesterase 3 = Phosphodiesterase 3 (Homo sapiens, UniProt Q14432+Q13370); test: Inhibition of PDE3 (unknown origin); type: protein assay
Beta-secretase 1 = Beta-secretase 1 (Homo sapiens, UniProt P56817); test: Inhibition of BACE1 (unknown origin)
Cathepsin D = Cathepsin D (Homo sapiens, UniProt P07339); test: Inhibition of cathepsin D (unknown origin)
Cathepsin E = target: T3, Cathepsin E (Homo sapiens, UniProt P14091); test: Inhibition of cathepsin E (unknown origin)
T3 sequence (P14091 whole entry): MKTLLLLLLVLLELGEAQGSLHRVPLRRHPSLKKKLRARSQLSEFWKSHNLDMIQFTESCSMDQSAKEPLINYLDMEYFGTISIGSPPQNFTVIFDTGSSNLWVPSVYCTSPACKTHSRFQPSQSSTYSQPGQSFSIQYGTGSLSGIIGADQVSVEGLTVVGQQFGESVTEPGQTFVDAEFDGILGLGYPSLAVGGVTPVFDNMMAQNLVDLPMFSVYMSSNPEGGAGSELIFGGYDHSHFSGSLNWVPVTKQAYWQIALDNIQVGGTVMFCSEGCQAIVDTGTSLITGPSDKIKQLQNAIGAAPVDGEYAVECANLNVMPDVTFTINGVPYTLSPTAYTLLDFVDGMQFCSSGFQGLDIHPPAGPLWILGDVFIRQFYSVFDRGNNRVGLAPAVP

Pepsin A = Pepsin A (Homo sapiens, UniProt P0DJD9); test: Inhibition of pepsin A (unknown origin)
Gastricsin = target: T4, Gastricsin (Homo sapiens, UniProt P20142); test: Inhibition of pepsin C (unknown origin)
T4 sequence (P20142 whole entry): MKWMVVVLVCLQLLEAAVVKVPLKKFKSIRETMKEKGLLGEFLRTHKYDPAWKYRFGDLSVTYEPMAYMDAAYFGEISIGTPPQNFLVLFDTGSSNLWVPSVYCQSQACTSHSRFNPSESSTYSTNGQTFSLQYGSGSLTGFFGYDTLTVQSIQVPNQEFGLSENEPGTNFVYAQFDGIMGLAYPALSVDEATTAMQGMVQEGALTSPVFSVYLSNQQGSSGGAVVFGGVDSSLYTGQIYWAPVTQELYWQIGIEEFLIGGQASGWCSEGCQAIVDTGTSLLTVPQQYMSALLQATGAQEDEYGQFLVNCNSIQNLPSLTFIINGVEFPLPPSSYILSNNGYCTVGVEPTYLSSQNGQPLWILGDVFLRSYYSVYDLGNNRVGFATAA

[4] = target: Voltage-gated inwardly rectifying potassium channel KCNH2 (Homo sapiens, UniProt Q12809); test: Inhibition of human ERG by dofetilide binding assay
[5] = Solubility in aqueous buffer at pH 6.8; type: physicochemical
Cytochrome P450 2D6 = Cytochrome P450 2D6 (Homo sapiens, UniProt P10635); test: Inhibition of CYP2D6 (unknown origin); type: ADME
Cytochrome P450 2C9 = Cytochrome P450 2C9 (Homo sapiens, UniProt P11712); test: Inhibition of CYP2C9 (unknown origin); type: ADME
Rattus norvegicus [6] = test: Oral bioavailability in cannulated fed Sprague-Dawley rat at 6 mg/kg; type: ADME, organism-based; conditions: in vivo
[7] = Half life in cannulated fed Sprague-Dawley rat at 2 mg/kg, iv; type: ADME, organism-based; parameters: dose 2 mg/kg, route intravenous; conditions: in vivo
Rattus norvegicus [8] = test: Plasma clearance in cannulated fed Sprague-Dawley rat at 2 mg/kg, iv; type: ADME, organism-based; parameters: dose 2 mg/kg, route intravenous; conditions: in vivo
[9] = Volume of distribution at steady state in cannulated fed Sprague-Dawley rat at 2 mg/kg, iv; type: ADME, organism-based; parameters: dose 2 mg/kg, route intravenous; conditions: in vivo, read-out: Vdss
[10] = Cmax in cannulated fed Sprague-Dawley rat at 6 mg/kg, po; type: ADME, organism-based; parameters: dose 6 mg/kg, route oral; conditions: in vivo
Rattus norvegicus [11] = test: AUC (0 to 24 hrs) in cannulated fed Sprague-Dawley rat at 6 mg/kg, po; type: ADME, organism-based, Plasma; parameters: time < 24 hr, dose 6 mg/kg, route oral; conditions: in vivo
Rattus norvegicus [12] = test: Reduction in mean arterial blood pressure in hypertensive telemetered double-transgenic rat overexpressing human renin and angiotensinogen at 30 mg/kg, po; type: functional

Chain of Voltage-gated inwardly rectifying potassium channel KCNH2 (Q12809 whole entry): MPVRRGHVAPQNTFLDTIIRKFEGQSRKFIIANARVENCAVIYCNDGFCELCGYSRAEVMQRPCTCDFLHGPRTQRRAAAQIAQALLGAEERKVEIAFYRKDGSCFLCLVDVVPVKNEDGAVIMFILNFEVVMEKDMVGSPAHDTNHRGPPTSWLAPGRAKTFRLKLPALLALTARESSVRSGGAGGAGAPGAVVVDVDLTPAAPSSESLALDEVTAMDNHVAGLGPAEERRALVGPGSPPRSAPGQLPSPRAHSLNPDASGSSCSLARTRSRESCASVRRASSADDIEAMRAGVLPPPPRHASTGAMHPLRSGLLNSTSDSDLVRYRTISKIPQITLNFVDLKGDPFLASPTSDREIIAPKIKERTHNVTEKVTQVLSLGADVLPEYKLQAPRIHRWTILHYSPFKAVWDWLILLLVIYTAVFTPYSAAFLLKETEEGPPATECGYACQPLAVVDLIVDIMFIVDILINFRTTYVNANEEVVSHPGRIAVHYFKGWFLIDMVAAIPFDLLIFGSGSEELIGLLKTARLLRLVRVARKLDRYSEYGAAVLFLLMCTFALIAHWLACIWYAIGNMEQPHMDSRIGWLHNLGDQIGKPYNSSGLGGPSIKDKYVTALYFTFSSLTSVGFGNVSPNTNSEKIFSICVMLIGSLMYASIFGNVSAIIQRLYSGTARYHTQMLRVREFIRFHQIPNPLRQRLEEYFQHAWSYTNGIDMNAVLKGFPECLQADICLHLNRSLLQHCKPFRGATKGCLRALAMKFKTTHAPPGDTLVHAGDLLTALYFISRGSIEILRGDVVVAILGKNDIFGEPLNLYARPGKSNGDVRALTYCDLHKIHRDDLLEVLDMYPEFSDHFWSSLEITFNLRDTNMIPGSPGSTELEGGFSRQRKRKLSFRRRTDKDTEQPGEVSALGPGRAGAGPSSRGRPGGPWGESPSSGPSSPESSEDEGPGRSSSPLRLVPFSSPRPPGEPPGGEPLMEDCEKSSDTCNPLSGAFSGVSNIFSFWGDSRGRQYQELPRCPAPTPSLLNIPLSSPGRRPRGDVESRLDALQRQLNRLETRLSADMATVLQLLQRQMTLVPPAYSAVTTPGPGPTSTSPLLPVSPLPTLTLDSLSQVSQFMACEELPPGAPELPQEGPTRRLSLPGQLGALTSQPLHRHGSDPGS
Chain of Cytochrome P450 3A4 (P08684 whole entry): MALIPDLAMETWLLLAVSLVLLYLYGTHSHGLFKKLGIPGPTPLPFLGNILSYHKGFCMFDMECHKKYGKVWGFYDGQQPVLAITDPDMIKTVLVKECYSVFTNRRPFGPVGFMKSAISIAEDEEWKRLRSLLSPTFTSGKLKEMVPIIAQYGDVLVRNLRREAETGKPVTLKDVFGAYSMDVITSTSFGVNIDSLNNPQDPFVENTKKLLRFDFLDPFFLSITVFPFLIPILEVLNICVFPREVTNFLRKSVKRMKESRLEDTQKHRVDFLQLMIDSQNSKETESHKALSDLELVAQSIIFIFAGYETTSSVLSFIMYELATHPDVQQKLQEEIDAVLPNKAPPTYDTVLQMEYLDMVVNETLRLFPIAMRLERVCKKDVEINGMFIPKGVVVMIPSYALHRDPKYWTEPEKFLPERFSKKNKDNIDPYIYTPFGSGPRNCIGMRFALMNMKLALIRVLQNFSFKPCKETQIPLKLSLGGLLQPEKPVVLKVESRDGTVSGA
Chain of Beta-secretase 1 (P56817 whole entry): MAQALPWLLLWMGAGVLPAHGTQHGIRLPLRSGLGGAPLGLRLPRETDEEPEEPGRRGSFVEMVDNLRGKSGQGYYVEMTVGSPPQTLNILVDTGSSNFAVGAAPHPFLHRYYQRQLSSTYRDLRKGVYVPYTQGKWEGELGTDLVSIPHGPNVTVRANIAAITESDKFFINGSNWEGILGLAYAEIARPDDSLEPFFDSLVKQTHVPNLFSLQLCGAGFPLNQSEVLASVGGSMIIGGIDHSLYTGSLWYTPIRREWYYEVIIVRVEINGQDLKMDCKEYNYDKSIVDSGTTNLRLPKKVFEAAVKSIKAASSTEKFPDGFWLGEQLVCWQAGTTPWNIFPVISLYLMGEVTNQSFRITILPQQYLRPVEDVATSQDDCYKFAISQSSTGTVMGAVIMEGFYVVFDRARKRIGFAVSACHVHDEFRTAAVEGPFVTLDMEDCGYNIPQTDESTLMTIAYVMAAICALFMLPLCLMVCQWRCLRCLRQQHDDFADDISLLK
Chain of Cytochrome P450 2D6 (P10635 whole entry): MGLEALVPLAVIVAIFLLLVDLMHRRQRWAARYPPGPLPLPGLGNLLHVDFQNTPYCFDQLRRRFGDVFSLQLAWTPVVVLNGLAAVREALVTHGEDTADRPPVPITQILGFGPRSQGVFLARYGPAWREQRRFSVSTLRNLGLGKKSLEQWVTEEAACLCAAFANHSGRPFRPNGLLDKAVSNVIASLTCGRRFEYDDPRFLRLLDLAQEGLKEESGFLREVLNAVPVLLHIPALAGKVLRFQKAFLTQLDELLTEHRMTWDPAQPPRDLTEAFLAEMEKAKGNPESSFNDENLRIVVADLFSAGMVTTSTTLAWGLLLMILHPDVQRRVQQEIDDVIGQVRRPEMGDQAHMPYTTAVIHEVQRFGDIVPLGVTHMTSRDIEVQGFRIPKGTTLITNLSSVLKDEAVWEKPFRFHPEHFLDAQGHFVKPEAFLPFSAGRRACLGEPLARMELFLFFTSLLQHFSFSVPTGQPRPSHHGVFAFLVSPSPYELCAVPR
Chain of Cytochrome P450 2C9 (P11712 whole entry): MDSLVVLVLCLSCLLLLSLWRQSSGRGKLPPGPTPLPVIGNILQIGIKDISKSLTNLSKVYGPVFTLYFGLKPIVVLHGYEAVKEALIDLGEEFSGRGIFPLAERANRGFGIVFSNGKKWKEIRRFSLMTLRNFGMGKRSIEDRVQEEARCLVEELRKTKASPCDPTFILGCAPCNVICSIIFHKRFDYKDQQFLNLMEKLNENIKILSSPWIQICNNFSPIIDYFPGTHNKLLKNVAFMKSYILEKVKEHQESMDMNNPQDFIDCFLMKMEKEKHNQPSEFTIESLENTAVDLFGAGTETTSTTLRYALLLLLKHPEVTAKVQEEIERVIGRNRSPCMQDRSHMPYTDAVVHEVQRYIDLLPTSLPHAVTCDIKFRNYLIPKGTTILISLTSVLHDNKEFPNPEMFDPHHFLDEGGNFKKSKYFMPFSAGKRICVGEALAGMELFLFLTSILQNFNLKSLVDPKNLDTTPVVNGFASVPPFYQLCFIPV
Chain of Pepsin A (P0DJD9 whole entry): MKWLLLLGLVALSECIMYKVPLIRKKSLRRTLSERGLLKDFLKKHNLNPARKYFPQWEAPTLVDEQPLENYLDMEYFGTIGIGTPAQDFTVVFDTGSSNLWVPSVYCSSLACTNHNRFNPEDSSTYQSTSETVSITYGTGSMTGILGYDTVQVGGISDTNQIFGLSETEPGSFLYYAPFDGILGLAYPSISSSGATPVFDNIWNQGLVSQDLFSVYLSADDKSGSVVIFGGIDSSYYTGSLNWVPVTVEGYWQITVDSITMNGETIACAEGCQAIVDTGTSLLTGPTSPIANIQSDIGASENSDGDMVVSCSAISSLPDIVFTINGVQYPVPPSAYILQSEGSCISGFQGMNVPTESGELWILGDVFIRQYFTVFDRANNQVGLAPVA
Chain of Cathepsin D (P07339 65-162 limits assumed): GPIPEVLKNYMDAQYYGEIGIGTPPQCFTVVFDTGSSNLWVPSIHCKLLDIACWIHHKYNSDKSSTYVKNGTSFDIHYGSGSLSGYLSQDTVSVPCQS
Chain of Cathepsin D (P07339 169-412 limits assumed): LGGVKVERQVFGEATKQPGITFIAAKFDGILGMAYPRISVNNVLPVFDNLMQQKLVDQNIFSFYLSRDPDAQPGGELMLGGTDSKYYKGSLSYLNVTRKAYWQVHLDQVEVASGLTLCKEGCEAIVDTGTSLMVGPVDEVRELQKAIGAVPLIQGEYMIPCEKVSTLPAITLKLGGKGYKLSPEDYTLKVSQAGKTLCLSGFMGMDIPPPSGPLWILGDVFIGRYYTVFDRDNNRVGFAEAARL
Chain of Mu-type opioid receptor (P35372 whole entry): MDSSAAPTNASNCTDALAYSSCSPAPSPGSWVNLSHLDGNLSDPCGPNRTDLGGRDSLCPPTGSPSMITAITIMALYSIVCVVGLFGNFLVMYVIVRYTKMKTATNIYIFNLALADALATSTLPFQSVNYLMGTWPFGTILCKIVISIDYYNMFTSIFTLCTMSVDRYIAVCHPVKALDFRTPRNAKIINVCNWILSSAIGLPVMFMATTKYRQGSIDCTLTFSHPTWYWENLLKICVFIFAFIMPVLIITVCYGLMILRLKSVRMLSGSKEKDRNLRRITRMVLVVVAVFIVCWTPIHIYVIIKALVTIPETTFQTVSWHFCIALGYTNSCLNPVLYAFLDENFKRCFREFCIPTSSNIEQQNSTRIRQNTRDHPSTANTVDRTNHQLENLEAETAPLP

COCCCOc1cc(C(=O)N(C[C@@H]2CNC[C@H]2OC(=O)NCc2ccccc2)C(C)C)ccc1OC
IC50 (Renin [1]): 40 nM
IC50 (Cytochrome P450 3A4): 4 µM
IC50 (Renin [2]): 30 nM
IC50 [3]: 1000 nM
IC50 (Mu-type opioid receptor): 1000 nM
IC50 (Phosphodiesterase 3): 1 µM
IC50 (Beta-secretase 1): > 30 µM
IC50 (Cathepsin D): > 30 µM
IC50 (Cathepsin E): > 30 µM
IC50 (Pepsin A): > 30 µM
IC50 (Gastricsin): > 30 µM
IC50 [4]: 13 µM
solubility [5]: > 1000 µM
IC50 (Cytochrome P450 2D6): > 20 µM
IC50 (Cytochrome P450 2C9): > 20 µM
F (Rattus norvegicus [6]): 57%
half-life [7]: 132 min
CL (Rattus norvegicus [8]): 2.5 L/h/kg
Vd [9]: 4.9 L/kg
Cmax [10]: 1020 nM
AUC (Rattus norvegicus [11]): 468 nM·h
Activity (Rattus norvegicus [12]): 62 mmHg
